These results are taken from ChEMBL document CHEMBL1145558, “3,5-Dihydro-imidazo[4,5-d]pyridazin-4-ones: a class of potent DPP-4 inhibitors” (Bioorg Med Chem Lett, 2008).

SMILES strings stand for the structures.

Data set [1] addresses T1, Muscarinic acetylcholine receptor M1 (Homo sapiens, UniProt P11229).
T1 sequence (P11229 whole entry): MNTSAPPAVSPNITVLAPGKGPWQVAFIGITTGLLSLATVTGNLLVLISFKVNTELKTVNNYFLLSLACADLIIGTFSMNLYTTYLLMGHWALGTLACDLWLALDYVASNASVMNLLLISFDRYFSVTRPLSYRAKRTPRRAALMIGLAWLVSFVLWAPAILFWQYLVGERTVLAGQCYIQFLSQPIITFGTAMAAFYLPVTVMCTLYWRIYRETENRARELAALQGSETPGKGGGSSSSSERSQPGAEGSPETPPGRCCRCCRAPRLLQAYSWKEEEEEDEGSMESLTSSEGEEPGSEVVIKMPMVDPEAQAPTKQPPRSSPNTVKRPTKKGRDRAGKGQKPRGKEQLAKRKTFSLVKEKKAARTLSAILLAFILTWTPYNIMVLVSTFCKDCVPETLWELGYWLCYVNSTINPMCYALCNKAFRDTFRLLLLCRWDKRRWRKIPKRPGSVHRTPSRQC
Briefly: Displacement of [N-methyl-3H]scopolamine from human recombinant muscarinic receptor M1 expressed in CHO cell membrane. The format is cell membranes.

The species entered for data set [2] is Rattus norvegicus. Description: animal or person. As to conditions: Plasma, po, 7 h, read-out: Inhibition.
Description: Ex vivo inhibition of DPP4 in rat plasma at 10 mg/kg, po after 7 hrs
A further data set concerns the target Cytochrome P450 2C19 (Homo sapiens, UniProt P33261). Description: Inhibition of CYP2C19. Format: ADME.
The target of the next data set is T2, Cytochrome P450 1A2 (Homo sapiens, UniProt P05177).
T2 sequence (P05177 whole entry): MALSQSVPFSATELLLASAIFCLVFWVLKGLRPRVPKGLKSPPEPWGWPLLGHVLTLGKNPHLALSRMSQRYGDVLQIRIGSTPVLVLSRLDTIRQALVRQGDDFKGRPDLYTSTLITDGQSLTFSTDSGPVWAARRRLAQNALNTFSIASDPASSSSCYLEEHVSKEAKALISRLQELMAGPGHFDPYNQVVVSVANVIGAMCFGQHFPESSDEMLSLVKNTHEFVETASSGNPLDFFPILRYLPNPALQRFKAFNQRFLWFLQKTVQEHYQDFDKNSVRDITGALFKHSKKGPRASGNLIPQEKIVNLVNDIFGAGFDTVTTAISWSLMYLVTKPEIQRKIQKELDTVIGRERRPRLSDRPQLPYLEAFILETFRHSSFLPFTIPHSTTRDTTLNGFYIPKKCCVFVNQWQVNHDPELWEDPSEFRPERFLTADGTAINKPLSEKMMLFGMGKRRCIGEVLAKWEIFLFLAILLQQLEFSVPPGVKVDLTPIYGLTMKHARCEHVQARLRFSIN
Description: Inhibition of CYP1A2. The format is ADME.

A short description of data set [3]: Oral bioavailability in rat. Format: ADME, organism-based. The note with it: in vivo.
The next data set deals with Cytochrome P450 3A4 (Homo sapiens, UniProt P08684). Briefly: Inhibition of CYP3A4. Format: ADME.
Chain of Cytochrome P450 3A4 (P08684 whole entry): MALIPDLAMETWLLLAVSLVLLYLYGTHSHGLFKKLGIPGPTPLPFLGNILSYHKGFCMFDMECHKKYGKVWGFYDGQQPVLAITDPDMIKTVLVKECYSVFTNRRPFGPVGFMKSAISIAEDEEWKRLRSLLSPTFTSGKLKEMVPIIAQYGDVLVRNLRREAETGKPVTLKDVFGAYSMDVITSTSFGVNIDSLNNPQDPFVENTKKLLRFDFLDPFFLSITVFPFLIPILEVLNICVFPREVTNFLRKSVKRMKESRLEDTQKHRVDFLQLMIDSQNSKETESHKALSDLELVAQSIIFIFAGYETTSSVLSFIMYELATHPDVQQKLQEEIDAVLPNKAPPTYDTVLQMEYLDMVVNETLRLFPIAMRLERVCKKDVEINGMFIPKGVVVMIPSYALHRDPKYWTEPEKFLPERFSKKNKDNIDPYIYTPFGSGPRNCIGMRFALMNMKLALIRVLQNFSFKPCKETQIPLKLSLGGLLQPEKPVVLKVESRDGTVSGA
Data set [4] is described as follows: Clearance in rat. Format: ADME, organism-based. As to conditions: in vivo.
Data set [5] is described as follows: Volume of distribution at steady state in rat. Format: ADME, organism-based. The note with it: in vivo, read-out: Vdss.
Data set [6] in a line: Mean residence time in rat. Format: ADME, organism-based. As to conditions: in vivo.
Data set [7] can be described thus: Metabolic stability in human liver cytosol assessed as half life. The format is ADME, tissue-based.
In data set [8] the test system is Rattus norvegicus. Description: Ex vivo inhibition of DPP4 in rat plasma at 10 mg/kg, po after 24 hrs. The format is functional. Details: scale not given: the % may be the effect or the level left.
A further data set has as its target Cytochrome P450 2C9 (Homo sapiens, UniProt P11712). Briefly: Inhibition of CYP2C9. Format: ADME.
In the next data set the target is hERG (KCNH2) (Homo sapiens, UniProt Q12809). Description: Inhibition of human ERG assessed as channel current activity at 1 uM. Also on record: scale not given: the % may be the effect or the level left. The note with it: read-out: Activity.
Chain of hERG (KCNH2) (Q12809 whole entry): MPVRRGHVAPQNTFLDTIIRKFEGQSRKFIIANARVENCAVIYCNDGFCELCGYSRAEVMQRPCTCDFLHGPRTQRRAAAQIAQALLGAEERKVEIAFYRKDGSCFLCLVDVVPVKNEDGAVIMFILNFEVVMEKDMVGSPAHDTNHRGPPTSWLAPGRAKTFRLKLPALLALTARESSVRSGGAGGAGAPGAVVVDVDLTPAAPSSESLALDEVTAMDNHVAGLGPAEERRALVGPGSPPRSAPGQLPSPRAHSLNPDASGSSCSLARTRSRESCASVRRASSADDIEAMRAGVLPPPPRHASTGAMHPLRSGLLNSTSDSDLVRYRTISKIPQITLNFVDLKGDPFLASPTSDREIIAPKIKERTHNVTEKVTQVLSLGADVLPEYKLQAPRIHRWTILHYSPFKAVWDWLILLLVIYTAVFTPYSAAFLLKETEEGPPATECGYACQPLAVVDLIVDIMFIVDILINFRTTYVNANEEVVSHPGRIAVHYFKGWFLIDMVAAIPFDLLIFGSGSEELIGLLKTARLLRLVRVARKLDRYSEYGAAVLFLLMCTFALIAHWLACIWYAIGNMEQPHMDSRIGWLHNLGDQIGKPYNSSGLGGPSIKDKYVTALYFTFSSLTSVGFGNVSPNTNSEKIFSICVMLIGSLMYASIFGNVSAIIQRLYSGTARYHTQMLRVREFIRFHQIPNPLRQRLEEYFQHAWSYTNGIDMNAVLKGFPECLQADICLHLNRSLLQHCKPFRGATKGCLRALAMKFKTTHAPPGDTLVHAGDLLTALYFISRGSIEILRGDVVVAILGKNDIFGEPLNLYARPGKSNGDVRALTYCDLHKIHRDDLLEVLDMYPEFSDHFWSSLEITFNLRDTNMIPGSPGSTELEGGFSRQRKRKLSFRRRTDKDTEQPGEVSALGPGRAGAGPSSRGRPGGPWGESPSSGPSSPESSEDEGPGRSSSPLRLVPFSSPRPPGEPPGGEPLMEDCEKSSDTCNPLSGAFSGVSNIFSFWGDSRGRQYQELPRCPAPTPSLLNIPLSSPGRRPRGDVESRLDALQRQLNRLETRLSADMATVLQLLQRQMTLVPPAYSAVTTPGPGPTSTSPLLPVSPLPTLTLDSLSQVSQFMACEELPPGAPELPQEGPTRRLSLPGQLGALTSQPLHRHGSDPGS
Data set [9] is described as follows: Metabolic stability in human liver microsomes assessed as half life. Format: ADME, Microsome.
Another data set concerns the target Cytochrome P450 2D6 (Homo sapiens, UniProt P10635). Briefly: Inhibition of CYP2D6. The format is ADME.

Broadly, the IC50 is the concentration at which inhibition is half-maximal. What is called bioavailability is dose-corrected exposure relative to a reference, in per cent. Usually clearance stands for the volume of plasma or blood freed of the substance per unit of time. Broadly, the MRT is the average time that molecules of a dose stay in the body. The term half-life denotes the time in which the quantity being followed falls by half.

Chain of Cytochrome P450 2C9 (P11712 whole entry): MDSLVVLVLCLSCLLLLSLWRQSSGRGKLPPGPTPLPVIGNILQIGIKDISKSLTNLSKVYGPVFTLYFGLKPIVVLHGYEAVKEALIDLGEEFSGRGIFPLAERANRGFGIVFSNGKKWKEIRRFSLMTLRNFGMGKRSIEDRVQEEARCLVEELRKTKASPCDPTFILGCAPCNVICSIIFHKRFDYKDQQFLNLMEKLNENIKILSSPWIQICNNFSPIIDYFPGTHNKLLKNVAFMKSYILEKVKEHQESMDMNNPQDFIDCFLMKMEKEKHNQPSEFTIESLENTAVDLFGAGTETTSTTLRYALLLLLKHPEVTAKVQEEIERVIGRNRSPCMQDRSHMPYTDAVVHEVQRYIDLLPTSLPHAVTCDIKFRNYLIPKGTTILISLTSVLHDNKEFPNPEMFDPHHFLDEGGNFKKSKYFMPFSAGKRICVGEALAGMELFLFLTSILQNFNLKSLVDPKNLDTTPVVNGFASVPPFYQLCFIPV
Chain of Cytochrome P450 2C19 (P33261 whole entry): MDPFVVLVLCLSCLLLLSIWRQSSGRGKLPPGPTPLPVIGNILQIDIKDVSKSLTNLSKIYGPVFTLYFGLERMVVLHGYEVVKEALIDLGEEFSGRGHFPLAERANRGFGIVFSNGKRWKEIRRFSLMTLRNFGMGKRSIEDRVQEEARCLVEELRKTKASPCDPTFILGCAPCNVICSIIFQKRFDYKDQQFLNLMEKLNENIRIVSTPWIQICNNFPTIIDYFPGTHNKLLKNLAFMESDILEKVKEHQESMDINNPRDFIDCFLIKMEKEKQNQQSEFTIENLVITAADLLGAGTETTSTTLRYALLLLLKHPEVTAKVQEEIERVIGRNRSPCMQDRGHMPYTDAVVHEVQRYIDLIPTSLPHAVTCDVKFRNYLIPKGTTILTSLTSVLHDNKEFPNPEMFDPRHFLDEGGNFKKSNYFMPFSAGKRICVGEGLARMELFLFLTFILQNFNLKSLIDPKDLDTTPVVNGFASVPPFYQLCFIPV
Chain of Cytochrome P450 2D6 (P10635 whole entry): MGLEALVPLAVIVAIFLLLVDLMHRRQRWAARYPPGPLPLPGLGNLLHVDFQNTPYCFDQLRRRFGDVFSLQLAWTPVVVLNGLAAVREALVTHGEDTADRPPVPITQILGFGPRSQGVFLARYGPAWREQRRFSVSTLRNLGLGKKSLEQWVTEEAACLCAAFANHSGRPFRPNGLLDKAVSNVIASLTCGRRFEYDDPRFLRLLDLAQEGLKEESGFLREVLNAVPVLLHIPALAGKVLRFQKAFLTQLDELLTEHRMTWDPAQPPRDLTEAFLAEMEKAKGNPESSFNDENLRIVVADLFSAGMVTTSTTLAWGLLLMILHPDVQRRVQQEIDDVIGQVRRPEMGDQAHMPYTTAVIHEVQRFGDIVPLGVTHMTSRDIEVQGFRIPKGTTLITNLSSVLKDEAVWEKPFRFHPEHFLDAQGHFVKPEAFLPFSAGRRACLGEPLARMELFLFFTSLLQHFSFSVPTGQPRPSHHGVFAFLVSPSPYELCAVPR

Regarding `CC#CCn1c(N2CCCC(N)C2)nc2cnn(Cc3ccc(C#N)c4ccccc34)c(=O)c21` (centres undefined), the IC50 in data set [1] came out at 0.862 µM. The inhibition in vivo at 10 mg/kg in the data set filed under Rattus norvegicus [2] is 84%.
For the compound `CC#CCn1c(N2CCNCC2)nc2cnn(Cc3nc(C)c4ccccc4n3)c(=O)c21`, the IC50 in [1] worked out at 2.8 µM. Moreover, in the data set listed under Rattus norvegicus [2], the inhibition in vivo at 10 mg/kg was 45%.
In the case of `CC#CCn1c(NC[C@H](C)N)nc2cnn(Cc3nc(C)c4ccccc4n3)c(=O)c21`, the IC50 in data set [1] is more than 5 µM. In addition, in the data set filed under Rattus norvegicus [2], the inhibition in vivo at 10 mg/kg worked out at 50%.
Consider `CC#CCn1c(N2CCC[C@H](N)C2)nc2cnn(CC3=Nc4ccccc4Oc4ccccc43)c(=O)c21`, for which the inhibition in vivo at 10 mg/kg in the data set listed under Rattus norvegicus [2] was 9%.
On to `CC#CCn1c(NCCN)nc2cnn(Cc3nc(C)c4ccccc4n3)c(=O)c21`, for which the IC50 in data set [1] is more than 5 µM. The inhibition in vivo at 10 mg/kg in the data set listed under Rattus norvegicus [2] came out at 29%.
Take `CC#CCn1c(N2CCCC(N)C2)nc2cnn(CC(=O)c3ccccc3)c(=O)c21` (centres undefined): the inhibition in vivo at 10 mg/kg in the data set filed under Rattus norvegicus [2] was 8%.
As for `CC#CCn1c(N2CCC[C@@H](N)C2)nc2cnn(CC3=Nc4ccccc4Oc4ccccc43)c(=O)c21`, the IC50 in [1] was more than 5 µM. Besides, the inhibition in vivo at 10 mg/kg in the data set filed under Rattus norvegicus [2] came out at 63%.
Turning to `CC#CCn1c(N2CCCC(N)C2)nc2cnn(Cc3nc4ccccc4o3)c(=O)c21` (centres undefined), the inhibition in vivo at 10 mg/kg in the data set filed under Rattus norvegicus [2] worked out at 64%.
For `CC#CCn1c(N2CCCC(N)C2)nc2cnn(CC3=Nc4ccccc4Oc4ccccc43)c(=O)c21` (centres undefined), the IC50 in data set [1] is 5.61 µM. Also, in the data set filed under Rattus norvegicus [2], the inhibition in vivo at 10 mg/kg was 73%.
For `CC#CCn1c(N2CCCNCC2)nc2cnn(Cc3nc(C)c4ccccc4n3)c(=O)c21` the same measures were 0.954 µM and 20%.
In the case of `CC#CCn1c(N2CCC[C@@H](N)C2)nc2cnn(Cc3nc(C)c4ccccc4n3)c(=O)c21`, the Inhibition on Cytochrome P450 2C19, at Cytochrome P450 1A2, at Cytochrome P450 3A4, on Cytochrome P450 2C9 and at Cytochrome P450 2D6 was more than 50 µM throughout. Besides, the bioavailability in [3] was 15%. In addition, in data set [4], the clearance was found to be 56 mL/min/kg. Also, in data set [1], the IC50 is 1.19 µM. In addition, the Vd in [5] was 40 L/kg. Moreover, the MRT in [6] was 8.8 h. The inhibition in vivo at 10 mg/kg in the data set filed under Rattus norvegicus [2] came to 80%. Also, the half-life in data set [7] and in [9] was more than 1.5 h in each case. The same compound showed an Activity in the data set with Rattus norvegicus [8] of 71%. Moreover, on hERG (KCNH2), the activity at 1 µM was 88%.
Consider `CC#CCn1c(N2CCC[C@@H](N)C2)nc2c(C)nn(Cc3nc(C)c4ccccc4n3)c(=O)c21`, for which, in data set [1], the IC50 was 0.093 µM. For the same compound, the inhibition in vivo at 10 mg/kg in the data set filed under Rattus norvegicus [2] is 76%.
